GI50 and TGI data for seven compounds are collected here from PubChem BioAssay (NCI).

Several values for one entry are separate records, joined by “and”; a condition that tells them apart may be missing. Identical values can stand only once.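 In this assay, cells in 96-well plates receive the compound at five concentrations for 48 hours. Endpoints are linearly interpolated between the surrounding concentrations. GI50 is the concentration that inhibits growth by half. TGI is the concentration that stops growth completely.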 Where only a bound is given, the exact number is not on record here.

Some test systems named below: DU-145 prostate; CCRF-CEM leukemia; NCI-H522 lung; U251 CNS; A498 renal; IGROV1 ovarian; SF-268 CNS; OVCAR-3 ovarian; EKVX NSCLC; OVCAR-8 ovarian.
Common to all, as to assay: NCI tumour cell line growth inhibition, 48 h

For `Cc1cnc2oc3ccc(O)cc3c2c1-c1ccccc1`, the GI50 in the assay with DU-145 prostate was 62.5 µM; with CCRF-CEM leukemia it was more than 100 µM; in the assay on NCI-H522 lung, 44.9 µM; with U251 CNS, 17.9 µM; in the assay with A498 renal it was 21.5 µM; in the assay with IGROV1 ovarian, 47 µM. Besides, the GI50 in the assay with SF-268 CNS was 16.1 µM; with OVCAR-3 ovarian it was 47.5 µM; in the assay with EKVX NSCLC it was 13.8 µM; with OVCAR-8 ovarian, 99 µM. For the same compound, the TGI with DU-145 prostate is more than 100 µM; in the assay with CCRF-CEM leukemia, more than 100 µM; with NCI-H522 lung it was more than 100 µM; with U251 CNS it was 51 µM; in the assay on A498 renal, 70.5 µM; in the assay on IGROV1 ovarian, more than 100 µM. The TGI is 58.8 µM with SF-268 CNS, more than 100 µM with OVCAR-3 ovarian, 65.5 µM in the assay on EKVX NSCLC and more than 100 µM with OVCAR-8 ovarian.

`Cn1c(=O)nc2n(-c3ccc(Cl)cc3)c3cc(Cl)ccc3nc-2c1=O`: the TGI in the assay with DU-145 prostate is 29 µM; with CCRF-CEM leukemia, 33.2 µM; in the assay on NCI-H522 lung, 6.36 µM; with U251 CNS, 33 µM; with A498 renal it was 27.6 µM; in the assay on IGROV1 ovarian, 3.74 µM. In addition, the TGI amounted to 7.23 µM in the assay with SF-268 CNS, 4.19 µM with OVCAR-3 ovarian, 17.7 µM in the assay with EKVX NSCLC and 6.2 µM with OVCAR-8 ovarian.

Take `N#Cc1c(NC(=O)c2ccc(F)cc2)sc2c1CCCC2`: the GI50 in the assay with DU-145 prostate, with CCRF-CEM leukemia, with NCI-H522 lung, with U251 CNS, in the assay on A498 renal and in the assay with IGROV1 ovarian was more than 25 µM in each case. The GI50 with SF-268 CNS, in the assay on OVCAR-3 ovarian, with EKVX NSCLC and in the assay on OVCAR-8 ovarian was more than 25 µM each time. The TGI in the assay on DU-145 prostate, in the assay on CCRF-CEM leukemia, with NCI-H522 lung, in the assay on U251 CNS, in the assay on A498 renal and in the assay with IGROV1 ovarian was more than 25 µM each time. In addition, the TGI with SF-268 CNS, in the assay with OVCAR-3 ovarian, with EKVX NSCLC and in the assay with OVCAR-8 ovarian was more than 25 µM throughout.

With `COc1c(/C=C/C=O)cc2c(c1OC)OCO2`, the TGI with DU-145 prostate was more than 100 µM; in the assay with CCRF-CEM leukemia, more than 100 µM; with NCI-H522 lung, more than 100 µM; in the assay on U251 CNS, 84.1 µM; with A498 renal, 3.15 µM; with IGROV1 ovarian, 82.4 µM. In addition, the TGI in the assay on SF-268 CNS, with OVCAR-3 ovarian, with EKVX NSCLC and in the assay on OVCAR-8 ovarian was more than 100 µM throughout.

As to `COc1ccc(C(=NN=C(N)N)c2ccc(OC)cc2)cc1`, the GI50 in the assay with DU-145 prostate was 2.6 µM; in the assay on CCRF-CEM leukemia, 5.18 µM; in the assay with NCI-H522 lung, 2.9 µM; with U251 CNS, 3.72 µM; with A498 renal, 2.78 µM; in the assay on IGROV1 ovarian it was 2.97 µM. The GI50 with SF-268 CNS was 2.34 µM; with OVCAR-3 ovarian, 1.74 µM; in the assay on EKVX NSCLC, 4.68 µM; in the assay on OVCAR-8 ovarian, 5.29 µM. Besides, the TGI is 10.8 µM in the assay on DU-145 prostate; 42.6 µM in the assay on CCRF-CEM leukemia; 13.4 µM in the assay on NCI-H522 lung; 14.1 µM with U251 CNS; 13.3 µM in the assay with A498 renal; 13.7 µM in the assay on IGROV1 ovarian. Besides, the TGI in the assay on SF-268 CNS turned out to be 12 µM; in the assay with OVCAR-3 ovarian, 4.76 µM; with EKVX NSCLC, 24.7 µM; in the assay on OVCAR-8 ovarian, 21.1 µM.

Consider `COc1cc(/C=C2\CCC/C(=C\c3ccc(O)c(OC)c3)C2=O)ccc1O`, for which the GI50 is 1.72 µM with DU-145 prostate; 0.366 µM in the assay with CCRF-CEM leukemia; 1.12 µM with NCI-H522 lung; 1.62 µM with U251 CNS; 1.81 µM in the assay with A498 renal; 1.85 µM in the assay on IGROV1 ovarian. The GI50 in the assay on SF-268 CNS was 1.8 µM; in the assay on OVCAR-3 ovarian, 1.56 µM; in the assay on EKVX NSCLC, 2.1 µM; with OVCAR-8 ovarian, 2.49 µM. Besides, the TGI in the assay with DU-145 prostate was 13.5 µM and 5.95 µM; in the assay with CCRF-CEM leukemia, 12.2 µM and > 100 µM; in the assay on NCI-H522 lung, 3.23 µM and 2.66 µM; in the assay with U251 CNS, 8.89 µM and 4.21 µM; in the assay with A498 renal it was 13.5 µM and 5.34 µM; with IGROV1 ovarian, 8.94 µM and 4.53 µM. Also, the TGI is 6.91 µM and 8.2 µM in the assay on SF-268 CNS; 10.8 µM and 3.39 µM in the assay on OVCAR-3 ovarian; 24.3 µM and 10.8 µM in the assay with EKVX NSCLC; 3.39 µM and 11.1 µM in the assay with OVCAR-8 ovarian.

For `COc1cc(/C=C/c2cc(/C=C/c3ccc(O)c(OC)c3)n(C(=O)Nc3ccccc3Cl)n2)ccc1O`, the GI50 with DU-145 prostate is 0.472 µM; in the assay with CCRF-CEM leukemia, 0.216 µM; in the assay on NCI-H522 lung, 0.112 µM; in the assay with U251 CNS, 0.384 µM; with A498 renal, 0.487 µM; with IGROV1 ovarian, 0.485 µM. Also, the GI50 in the assay with SF-268 CNS was 0.529 µM; in the assay on OVCAR-3 ovarian, 0.45 µM; with EKVX NSCLC it was 0.671 µM; in the assay with OVCAR-8 ovarian, 0.378 µM. Besides, the TGI with DU-145 prostate was determined as 1.64 µM; in the assay with CCRF-CEM leukemia it was 0.844 µM; in the assay with NCI-H522 lung, 0.672 µM; with U251 CNS, 1.51 µM; with A498 renal, 2.04 µM; in the assay with IGROV1 ovarian, 2.39 µM. In addition, the TGI in the assay with SF-268 CNS stood at 3.18 µM; in the assay on OVCAR-3 ovarian it was 3.68 µM; in the assay on EKVX NSCLC, 3.84 µM; with OVCAR-8 ovarian, 1.6 µM.
